Measurements reported in patent US20110171329A1, “METHOD FOR TREATMENT OF NEURAL INJURIES” (priority 2009, published 2011).

What was measured:
[1] = system: cortical mixed neuronal-glial cultures; assay: DCF assay of toxin-induced free radical formation in cortical mixed neuronal-glial cultures; format: cell-based, rat
Method: (§1) Mixed neuron-glia cell cultures were prepared from the spinal, mesencephalic and cortical regions of an embryonic Sprague-Dawley rat fetus (gestation day 15), respectively, as described in Tsai et al. (Ann. N.Y. Acad. Sci. 1042 (2005):338-348). Briefly, cells were dissociated with a mixture of papain/protease/deoxyribonuclease I (0.1%:0.1%:0.03%) and plated onto poly-lysine coated dishes at a density of 1 to 2×10^5 cells/cm^2 with Dulbecco's modified Eagle's medium (DMEM) supplemented with 10% fetal bovine serum (FBS). On the second day after cell seeding, the cultures were maintained in DMEM+10% FBS or in DMEM supplemented with N2 (Invitrogen, Carlsbad, Calif.) as serum-free medium.
(§2) On the 2nd or 3rd day after cell seeding, the cultures were firstly loaded with 50 μM DCFH-DA in serum-free medium (DMEM+N2) for 1 hr. The medium was then replaced with growth medium containing H2O2 (1 mM) or t-BOOH (0.75 mM) and the cultures were maintained in the growth medium for 2 hrs. HD2 (20 to 200 μg/ml) and baicalein (2 or 10 μM) were then added to the cultures within 10 minutes after the toxin treatment started, respectively. The resulted fluorescent DCF levels were measured by a fluorescence plate reader (ex/em: 485 nm/538 nm). FIGS. 5 and 6 show the results of the measurement.

[2] = system: spinal cord mixed neuronal-glial cultures; assay: DCF assay of toxin-induced free radical formation in spinal cord mixed neuronal-glial cultures; format: cell-based, rat
Method: as §1, §2

[3] = H2O2 1 mM, baicalein 2 and 10 μM
[4] = t-BOOH 0.75 mM, baicalein 2 or 10 μM, P<0.01

## O=c1cc(-c2ccccc2)oc2cc(O)c(O)c(O)c12 [baicalein]
[1]; [3]
  free radical level induced by H2O2: significantly reduced
[1]; [4]
  free radical level induced by t-BOOH: significantly inhibited
[2]; [3]
  free radical level induced by H2O2: significantly reduced
[2]; [4]
  free radical level induced by t-BOOH: significantly inhibited
